Structures are written as SMILES.

As usually defined, the Ki is a dissociation constant, usually derived from enzyme kinetics or from competition with a known ligand.

This test has as its target T1, cloned human 5-HT6 receptor (Homo sapiens, UniProt P50406).
T1 construct: host or cells: HeLa cells (G-418 selection), membrane preparation
In words: 5-HT6 Receptor Binding Assay. The settings on record: [3H]-lysergic acid diethylamide (LSD) radioligand, membranes of Hela cells containing the cloned human 5-HT6 receptor, SPA beads; estimated IC50 converted to Ki by Cheng-Prusoff. As to the method:
5-HT6 Receptor Binding Assay
Growth of Cells and Membrane Preparation
Hela cells containing the cloned human 5-HT6 receptor were acquired from Dr. David R. Sibley's laboratory in National Institute of Health (see Sibley, D. R., J. Neurochemistry, 66, 47-56, 1996). Cells were grown in high glucose Dulbecco's modified Eagle's medium, supplemented with L-glutamine, 0.5% sodium pyruvate, 0.3% penicillin-streptomycin, 0.025% G-418 and 5% Gibco fetal bovine serum and then were harvested, when confluent, in cold phosphate-buffered saline.
Harvested intact cells were washed once in cold phosphate-buffered saline. The cells were pelleted and resuspended in 100 ml of cold 50 mM Tris, 5 mM EDTA and 5 mM EGTA, pH 7.4. Homogenization was with a Vir Tishear generator, 4 cycles for 30 seconds each at setting 50. The homogenized cells were centrifuged at 700 RPM (1000×g) for 10 minutes and the supernatant was removed. The pellet was resuspended in 100 ml of the above buffer and rehomogenized for 2 cycles. The rehomogenized cells were then centrifuged at 700 RPM (1000×g) for 10 minutes and the supernatant was removed. The combined supernatant (200ml) was centrifuged at 23,000 RPM (80,000×g) for 1 hour in a Beckman Rotor (42.1 Ti). The membrane pellet was resupended in 50-8-ml of assay buffer containing HEPES 20 mM, MgCl2 10 mM, NaCl 150 mM, EDTA 1 mM, pH 7.4 and stored frozen in aliqouts at −70° C.
The radioligand binding assay used [^3H]-lysergic acid diethylamide (LSD). The assay was carried out in Wallac 96-well sample plates by the addition of 11 μl of the test sample at the appropriate dilution (the assay employed 11 serial concentrations of samples run in duplicate), 11 μl of radioligand, and 178 μl of a washed mixture of WGA-coated SPA beads and membranes in binding buffer. The plates were shaken for about 5 minutes and then incubated at room temperature for 1 hour. The plates were then loaded into counting cassettes and counted in a Wallac MicroBeta Trilux scintillation counter.
Binding Constant (Ki) Determination
Eleven serial dilutions of test compounds were distributed to assay plates using the PE/Cetus Pro/Pette pipetter. These dilutions were, followed by radioligand and the bead-membrane mixture prepared as described above. The specifically bound cpm obtained were fit to a one-site binding model using GraphPad Prism ver. 2.0. Estimated IC50 values were converted to Ki values using the Cheng-Prusoff equation (Cheng, Y. C. et al., Biochem. Pharmacol., 22, 3099-108, 1973).

T1 sequence (P50406 whole entry): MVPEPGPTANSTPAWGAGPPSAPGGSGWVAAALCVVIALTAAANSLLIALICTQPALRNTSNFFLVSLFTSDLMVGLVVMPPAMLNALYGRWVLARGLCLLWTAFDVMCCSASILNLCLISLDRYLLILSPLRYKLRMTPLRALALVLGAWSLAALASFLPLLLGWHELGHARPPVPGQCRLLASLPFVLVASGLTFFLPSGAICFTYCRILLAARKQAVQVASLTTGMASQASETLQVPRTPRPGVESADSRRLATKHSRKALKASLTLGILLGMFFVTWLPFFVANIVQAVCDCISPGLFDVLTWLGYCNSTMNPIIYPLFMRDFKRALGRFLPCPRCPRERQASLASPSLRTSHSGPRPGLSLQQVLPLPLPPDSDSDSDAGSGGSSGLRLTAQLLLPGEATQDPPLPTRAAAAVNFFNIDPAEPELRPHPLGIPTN

Turning to `NCCOc1cccc2c1c1ccccc1n2Cc1ccccc1` [Example 35, 2-[(9-Benzyl-9H-carbazol-4-yl)oxy]ethylamine], the Ki is 23 nM.

For the compound `CCN(CC)CCOc1cccc2c1c1cccc(C)c1n2Cc1ccc(F)cc1` [Example 5, N,N-Diethyl-N-(2-{[9-(4-fluorobenzyl)-8-methyl-9H-carbazol-4-yl]oxy}ethyl)amine], the Ki was 38 nM.

On to `COc1cccc(Cn2c3ccccc3c3c(OCCN)cccc32)c1` [Example 57, 2-{[9-(3-Methoxybenzyl)-9H-carbazol-4-yl]oxy}ethylamine], for which the Ki was 110 nM.

Regarding `c1ccc(Cn2c3ccccc3c3c(OCCNCc4nc5ccccc5[nH]4)cccc32)cc1` [Example 28, N-(1H-benzimidazol-2-ylmethyl)-2-[(9-benzyl-9H-carbazol-4-yl)oxy]-1-ethanamine], the Ki was 72 nM.

`c1ccc(Cn2c3ccccc3c3c(OCCNCCCN4CCOCC4)cccc32)cc1` [Example 12]: the inhibition constant Ki was 184 nM.

As to `Cc1nc(Cn2c3ccccc3c3c(OCCN)cccc32)cs1` [Example 51, 2-({9-[(2-Methyl-1,3-thiazol-4-yl)methyl]-9H-carbazol-4-yl}oxy)ethylamine], the Ki is 113 nM.

As to `CCN(CC)CCOc1cccc2c1c1cc(C)ccc1n2Cc1ccc(F)cc1` [Example 48, N,N-Diethyl-N-(2-{[9-(4-fluorobenzyl)-6-methyl-9H-carbazol-4-yl]oxy}ethyl)amine], the Ki is 123 nM.

Take `c1ccc(Cn2c3ccccc3c3c(OCCN4CCNCC4)cccc32)cc1` [Example 40, 9-Benzyl-4-[2-(1-piperazinyl)ethoxy]-9H-carbazole]: the Ki was 88 nM.

`c1ccc(Cn2c3ccccc3c3c(OCCNC4CCC4)cccc32)cc1` [Example 26, N-{2-[(9-benzyl-9H-carbazol-4-yl)oxy]ethyl}cyclobutanamine]: the inhibitory constant (Ki) is 47 nM.

On to `CCCNCCOc1cccc2c1c1ccccc1n2Cc1ccccc1` [Example 14, N-{2-[(9-benzyl-9H-carbazol-4-yl)oxy]ethyl}-1-propanamine], for which the Ki is 40 nM.

Take `OC1CCN(CCOc2cccc3c2c2ccccc2n3Cc2ccccc2)CC1` [Example 29, 1-{2-[(9-benzyl-9H-carbazol-4-yl)oxy]ethyl}-4-piperidinol]: the Ki was 11 nM.

On to `CCN(CC)CCOc1cccc2c1c1cc(C)ccc1n2Cc1ccccc1` [Example 45, N-{2-[(9-Benzyl-6-methyl-9H-carbazol-4-yl)oxy]ethyl}-N,N-diethylamine], for which the Ki is 6.6 nM.

Turning to `c1ccc(Cn2c3ccccc3c3c(OCCNC4CC4)cccc32)cc1` [Example 31, N-{2-[(9-benzyl-9H-carbazol-4-yl)oxy]ethyl}-N-cyclopropylamine], the inhibition constant (Ki) was 21 nM.

Consider `NCCOc1cccc2c1c1ccccc1n2Cc1csc2ccc(Cl)cc12` [Example 50, 2-({9-[(5-Chloro-1-benzothiophen-3-yl)methyl]-9H-carbazol-4-yl}oxy)ethylamine], for which the Ki was 138 nM.

Take `O[C@H]1CCCC[C@@H]1NCCOc1cccc2c1c1ccccc1n2Cc1ccccc1` [Example 24, (1S,2S)-2-({2-[(9-benzyl-9H-carbazol-4-yl)oxy]ethyl}amino)cyclohexanol]: the Ki is 85 nM.

As for `CCCN(CCC)CCOc1cccc2c1c1ccccc1n2Cc1ccccc1` [Example 15, N-{2-[(9-benzyl-9H-carbazol-4-yl)oxy]ethyl}-N-propyl-1-propanamine], the Ki was 394 nM.

Regarding `CCOC(=O)CCNCCOc1cccc2c1c1ccccc1n2Cc1ccccc1` [Example 25, ethyl 3-({2-[(9-benzyl-9H-carbazol-4-yl)oxy]ethyl}amino)propanoate], the inhibition constant Ki was 40 nM.

Regarding `Cc1ccc(Cn2c3ccccc3c3c(OCCN)cccc32)cc1` [Example 55, 2-{[9-(4-Methylbenzyl)-9H-carbazol-4-yl]oxy}ethylamine], the Ki is 482 nM.

Take `NCCOc1cccc2c1c1ccccc1n2Cc1cccc(Br)c1` [Example 53, 2-{[9-(3-Bromobenzyl)-9H-carbazol-4-yl]oxy}ethylamine]: the Ki is 127 nM.

Turning to `c1ccc(Cn2c3ccccc3c3c(OCCNCC4CCCCC4)cccc32)cc1` [Example 19, 2-[(9-benzyl-9H-carbazol-4-yl)oxy]-N-(cyclohexylmethyl)-1-ethanamine], the inhibition constant (Ki) was 311 nM.

Take `COc1ccc2c(c1)c1c(OCCN)cccc1n2Cc1ccccc1` [Example 61, 2-[(9-Benzyl-6-methoxy-9H-carbazol-4-yl)oxy]ethylamine]: the inhibitory constant (Ki) was 27 nM.

Take `Fc1ccc(CCNCCOc2cccc3c2c2ccccc2n3Cc2ccccc2)cc1` [Example 22, 2-[(9-benzyl-9H-carbazol-4-yl)oxy]-N-(4-fluorophenethyl)-1-ethanamine]: the inhibition constant (Ki) was 81 nM.

For `Clc1ccc(CCNCCOc2cccc3c2c2ccccc2n3Cc2ccccc2)cc1` [Example 18, 2-[(9-benzyl-9H-carbazol-4-yl)oxy]-N-(4-chlorophenethyl)-1-ethanamine], the Ki is 356 nM.

For the compound `C=CCNCCOc1cccc2c1c1ccccc1n2Cc1ccccc1` [Example 11, N-{2-[(9-benzyl-9H-carbazol-4-yl)oxy]ethyl}-2-propen-1-amine], the inhibition constant Ki is 23 nM.

Regarding `OCCN1CCN(CCOc2cccc3c2c2ccccc2n3Cc2ccccc2)CC1` [Example 9, 2-(4-{2-[(9-benzyl-9H-carbazol-4-yl)oxy]ethyl}-1-piperazinyl)-1-ethanol], the Ki is 62 nM.

On to `OCCCCCNCCOc1cccc2c1c1ccccc1n2Cc1ccccc1` [Example 13, 5-({2-[(9-benzyl-9H-carbazol-4-yl)oxy]ethyl}amino)-1-pentanol], for which the inhibition constant (Ki) is 43 nM.

With `c1ccc(CN2CCC(NCCOc3cccc4c3c3ccccc3n4Cc3ccccc3)CC2)cc1` [Example 16, 1-benzyl-N-{2-[(9-benzyl-9H-carbazol-4-yl)oxy]ethyl}-4-piperidinamine], the Ki was 148 nM.

Take `CCN(CC)CCOc1cccc2c1c1cccc(C)c1n2Cc1ccccc1` [Example 4, N-{2-[(9-Benzyl-8-methyl-9H-carbazol-4-yl)oxy]ethyl}-N,N-diethylamine]: the Ki is 18 nM.

Turning to `NCCOc1cccc2c1c1ccccc1n2Cc1ccccc1F` [Example 56, 2-{[9-(2-Fluorobenzyl)-9H-carbazol-4-yl]oxy}ethylamine], the inhibition constant (Ki) is 119 nM.

`c1ccc(Cn2c3ccccc3c3c(OCCNCc4ccccn4)cccc32)cc1` [Example 6, N-{2-[(9-Benzyl-9H-carbazol-4-yl)oxy]ethyl}-N-(2-pyridinylmethyl)amine]: the Ki is 69 nM.

`c1ccc(Cn2c3ccccc3c3c(OCCN4CCCC4)cccc32)cc1` [Example 38, 9-Benzyl-4-[2-(1-pyrrolidinyl)ethoxy]-9H-carbazole]: the inhibition constant Ki is 6.9 nM.

Take `CC(C)(CO)NCCOc1cccc2c1c1ccccc1n2Cc1ccccc1` [Example 17, 2-({2-[(9-benzyl-9H-carbazol-4-yl)oxy]ethyl}amino)-2-methyl-1-propanol]: the inhibitory constant (Ki) was 164 nM.

For `COc1ccc2c3c(OCCN)cccc3n(Cc3ccccc3)c2c1` [Example 62, 2-[(9-Benzyl-7-methoxy-9H-carbazol-4-yl)oxy]ethylamine], the Ki is 60 nM.

As to `OCCCNCCOc1cccc2c1c1ccccc1n2Cc1ccccc1` [Example 10, 3-({2-[(9-benzyl-9H-carbazol-4-yl)oxy]ethyl}amino)-1-propanol], the Ki was 20 nM.

As to `CCNCCOc1cccc2c1c1ccccc1n2Cc1ccccc1` [Example 37, 2-[(9-benzyl-9H-carbazol-4-yl)oxy]-N-ethyl-1-ethanamine], the Ki was 11 nM.

For `CCC(O)CNCCOc1cccc2c1c1ccccc1n2Cc1ccccc1` (stereo not drawn) [Example 21, 1-({2-[(9-benzyl-9H-carbazol-4-yl)oxy]ethyl}amino)-2-butanol], the Ki was 72 nM.

As for `CN1CCN(CCOc2cccc3c2c2ccccc2n3Cc2ccccc2)CC1` [Example 30, 9-benzyl-4-[2-(4-methyl-1-piperazinyl)ethoxy]-9H-carbazole], the inhibition constant Ki is 12 nM.

For `c1ccc(Cn2c3ccccc3c3c(OCCNCCN4CCOCC4)cccc32)cc1` [Example 20, 2-[(9-benzyl-9H-carbazol-4-yl)oxy]-N-[2-(4-morpholinyl)ethyl]-1-ethanamine], the Ki is 37 nM.

For the compound `c1ccc(Cn2c3ccccc3c3c(OCCN4CCOCC4)cccc32)cc1` [Example 8, 9-benzyl-4-[2-(4-morpholinyl)ethoxy]-9H-carbazole], the inhibition constant Ki was 398 nM.

The record behind these values is patent US6514968B1, “Aminoalkoxy carbazoles for the treatment of cns diseases” (Pharmacia & Upjohn Company, priority 1999, dated 2003).
